Measured values as given in US9617221B2, “Kinase modulators for the treatment of cancer” (Synovo GmbH, priority 2010, dated 2017).
Several values for one entry are separate records, joined by “and”; a condition that tells them apart may be missing. Identical values can stand only once.

Assays:
Assay type in all cases: cell-based, mice
IL-6 = IL-6 production by LPS-stimulated macrophages; settings: 10 μM, 72 h
Procedure: (§1) Peritoneal macrophage or splenocytes (lymphocytes and macrophage) were harvested from donor mice using standard techniques. Cells were placed in culture and stimulated with either LPS (10 μg/mL) or concanavalin A 5 μg/mL (Sigma Chemical Co., St Louis, Mo.) in RPMI-1640 medium supplemented with antibiotics, […] 2-mercaptoethanol, 10 mm HEPES buffer and 10% fetal calf serum (FCS) (see Holan et al., 1985) to stimulate macrophage and T-cells respectively. Compounds were added from DMSO stock solutions to a final concentration of 50 μM or less with DMSO not exceeding 1% of total volume. After 72 h, cell supernatant was recovered and the cytokine levels were estimated by ELISA. The effect of compounds on cytokine production was recorded as follows: […]

T cells = assay: Proliferation of Con A-stimulated T cells; settings: 10 μM
Procedure: as §1

IL-1β = IL-1β production by LPS-stimulated macrophages; settings: 5 μM, 72 h
Procedure: as §1

IFN-g = IFN-g production by ConA-stimulated T cells; settings: 10 μM, 72 h
Procedure: as §1

IL-10 [1] = assay: IL-10 production by LPS-stimulated murine peritoneal macrophage (ELISA); settings: for IL-10 by ELISA, % of solvent treated control: murine peritoneal macrophage; for IL-10 (LPS, Macrophages), amount of cytokine: 10 μM, 72 h
Procedure: as §1

NO = NO production by LPS-stimulated macrophages; settings: 10 μM, 72 h
IL-10 [2] = assay: IL-10 production by ConA-stimulated T cells; settings: 10 μM, 72 h
Procedure: as §1

IL-2 = IL-2 production by ConA-stimulated T cells; settings: 10 μM, 72 h
Procedure: as §1

IL-4 = IL-4 production, Con A, spleen; settings: 5 μM, 72 h
Procedure: as §1

B cells = assay: Proliferation of LPS-stimulated B cells; settings: 10 μM

| Compound | IL-6 (LPS, Macrophages), amount of cytokine (IL-6) | Proliferation (Con A, T cells) (T cells) | IL-1β (Macrophages, LPS), amount of cytokine (IL-1β) | IFN-g (ConA, T cells), amount of cytokine (IFN-g) | IL-10 by ELISA, % of solvent treated control (IL-10 [1]; 1 μM inhibitor in medium) | IL-10 by ELISA, % of solvent treated control (IL-10 [1]; 5 μM inhibitor in medium) | IL-10 by ELISA, % of solvent treated control (IL-10 [1]; 20 μM inhibitor in medium) | NO (LPS, Macrophages), % of control treated with solvent alone (NO) | IL-10 (ConA, T cells), amount of cytokine (IL-10 [2]) | IL-10 by ELISA, % of solvent treated control (IL-10 [1]; 10 μM inhibitor in medium) | IL-10 (LPS, Macrophages), amount of cytokine (IL-10 [1]) | IL-2 (ConA, T cells), amount of cytokine (IL-2) | IL-4 (Con A, spleen), amount of cytokine (IL-4) | Proliferation (LPS, B cells) (B cells) | IL-10 by ELISA, % of solvent treated control (IL-10 [1]; 1.25 μM inhibitor in medium) | IL-10 by ELISA, % of solvent treated control (IL-10 [1]; 0.31 μM inhibitor in medium) | IL-10 by ELISA, % of solvent treated control (IL-10 [1]; 2 μM inhibitor in medium) | IL-10 by ELISA, % of solvent treated control (IL-10 [1]; 50 μM inhibitor in medium) |
| --- | --- | --- | --- | --- | --- | --- | --- | --- | --- | --- | --- | --- | --- | --- | --- | --- | --- | --- |
| CC[C@H]1OC(=O)[C@H](C)[C@@H](OC2CC(C)(OC)C(O)C(C)O2)[C@H](C)[C@@H](OC2OC(C)CC(NC)C2O)C(C)(O)C[C@@H](C)C(=O)[C@H](C)[C@@H](O)C1(C)O (some centres unmarked) [Compound 16, 3′-desmethyl erythromycin] | 85 % of control treated with solvent alone | 0 % of control treated with solvent alone | 85 % of control treated with solvent alone | 2 % of control treated with solvent alone | 117 % of solvent treated control | 99 % of solvent treated control | 8 % of solvent treated control | 63 % of control treated with solvent alone |  |  |  |  |  |  |  |  |  |  |
| CC[C@H]1OC(=O)[C@H](C)[C@@H](O[C@H]2C[C@@](C)(OC)[C@@H](O)[C@H](C)O2)[C@H](C)[C@@H](O[C@@H]2O[C@H](C)C[C@H](N(C)CC3CO3)[C@H]2O)[C@](C)(O)C[C@@H](C)C(=O)[C@H](C)[C@@H](O)[C@]1(C)O (some centres unmarked) [Compound 18, 3′-desmethyl-3′-oxiranylmethyl erythromycin] | 90 % of control treated with solvent alone and 109 % of control treated with solvent alone and 106 % of control treated with solvent alone |  | 104 % of control treated with solvent alone and 81 % of control treated with solvent alone and 70 % of control treated with solvent alone |  | 124 % of solvent treated control | 109 % of solvent treated control | 57 % of solvent treated control | 47 % of control treated with solvent alone and 54 % of control treated with solvent alone and 65 % of control treated with solvent alone | 38 % of control treated with solvent alone and 70 % of control treated with solvent alone | 109 % of solvent treated control | 110 % of control treated with solvent alone and 108 % of control treated with solvent alone | 52 % of control treated with solvent alone and 86 % of control treated with solvent alone | 91 % of control treated with solvent alone and 84 % of control treated with solvent alone |  |  |  |  |  |
| CC[C@H]1OC(=O)[C@H](C)[C@@H](O[C@H]2C[C@@](C)(OC)[C@@H](O)[C@H](C)O2)[C@H](C)[C@@H](O[C@@H]2O[C@H](C)C[C@H](N(C)CC(O)CSc3nc(-c4ccc(F)cc4)c(-c4ccncc4)[nH]3)[C@H]2O)[C@](C)(O)C[C@@H](C)CN(C)[C@H](C)[C@@H](O)[C@]1(C)O (some centres unmarked) [Compound 20] |  | 0 % of control treated with solvent alone | 34 % of control treated with solvent alone |  |  | −12 % of solvent treated control | −12 % of solvent treated control |  |  |  |  |  | −5 % of control treated with solvent alone | −1 % of control treated with solvent alone | −11 % of solvent treated control |  |  |  |
| CC[C@H]1OC(=O)[C@H](C)[C@@H](O[C@H]2C[C@@](C)(OC)[C@@H](O)[C@H](C)O2)[C@H](C)[C@@H](O[C@@H]2O[C@H](C)C[C@H](N(C)CC(O)CSc3nc(-c4ccc(F)cc4)c(-c4ccncc4)[nH]3)[C@H]2O)[C@](C)(O)C[C@@H](C)C(=O)[C@H](C)[C@@H](O)[C@]1(C)O (some centres unmarked) [Compound 21] | 101 % of control treated with solvent alone |  | 101 % of control treated with solvent alone and 143 % of control treated with solvent alone | 0 % of control treated with solvent alone |  | 1 % of solvent treated control | −8 % of solvent treated control |  |  | −13 % of solvent treated control |  |  |  |  | 95 % of solvent treated control | 132 % of solvent treated control |  |  |
| CC[C@H]1OC(=O)[C@H](C)[C@@H](O)[C@H](C)[C@@H](O[C@@H]2O[C@H](C)C[C@H](N(C)CC(O)CSc3nc(-c4ccc(F)cc4)c(-c4ccncc4)[nH]3)[C@H]2O)[C@](C)(O)C[C@@H](C)CN(C)[C@H](C)[C@@H](O)[C@]1(C)O (some centres unmarked) [Compound 22] | 116 % of control treated with solvent alone | 10 % of control treated with solvent alone | 90 % of control treated with solvent alone and 106 % of control treated with solvent alone | 41 % of control treated with solvent alone |  | 43 % of solvent treated control | −3 % of solvent treated control | 69 % of control treated with solvent alone | 144 % of control treated with solvent alone | 13 % of solvent treated control | 13 % of control treated with solvent alone | 29 % of control treated with solvent alone | 237 % of control treated with solvent alone and 407 % of control treated with solvent alone |  | 86 % of solvent treated control | 103 % of solvent treated control |  |  |
| CC[C@H]1OC(=O)[C@H](C)[C@@H](O[C@H]2C[C@@](C)(OC)[C@@H](O)[C@H](C)O2)[C@H](C)[C@@H](O[C@@H]2O[C@H](C)C[C@H](N(C)CCCC(=O)OCC(O)COc3cccc(C(=O)c4cnn(-c5ccc(F)cc5)c4N)c3)[C@H]2O)[C@](C)(O)C[C@@H](C)CN(C)[C@H](C)[C@@H](O)[C@]1(C)O (some centres unmarked) [Compound 43h] |  |  |  |  |  | 52 % of solvent treated control | −11 % of solvent treated control |  |  |  |  |  | 280 % of control treated with solvent alone |  | 68 % of solvent treated control |  |  |  |
| CC[C@H]1OC(=O)[C@H](C)[C@@H](O[C@H]2C[C@@](C)(OC)[C@@H](O)[C@H](C)O2)[C@H](C)[C@@H](O[C@@H]2O[C@H](C)C[C@H](N(C)CCCC(=O)OCC(O)CSc3nc(-c4ccc(F)cc4)c(-c4ccnc(NC(C)c5ccccc5)c4)[nH]3)[C@H]2O)[C@](C)(O)C[C@@H](C)CN(C)[C@H](C)[C@@H](O)[C@]1(C)O (some centres unmarked) [Compound 43i] | 33 % of control treated with solvent alone and 32 % of control treated with solvent alone |  |  |  |  |  |  |  |  | 3 % of solvent treated control |  |  | 8 % of control treated with solvent alone |  |  |  | 25 % of solvent treated control | 0 % of solvent treated control |
| CC[C@H]1OC(=O)[C@H](C)[C@@H](O[C@H]2C[C@@](C)(OC)[C@@H](O)[C@H](C)O2)[C@H](C)[C@@H](O[C@@H]2O[C@H](C)C[C@H](N(C)CCCCCC(=O)OCCSc3nc(-c4ccc(F)cc4)c(-c4ccnc(NC(C)C)c4)[nH]3)[C@H]2O)[C@](C)(O)C[C@@H](C)CN(C)[C@H](C)[C@@H](O)[C@]1(C)O [Compound 43k] | 22 % of control treated with solvent alone | −1 % of control treated with solvent alone |  | 0 % of control treated with solvent alone |  |  |  | −1 % of control treated with solvent alone | 0 % of control treated with solvent alone | −8 % of solvent treated control | −8 % of control treated with solvent alone | 0 % of control treated with solvent alone |  | −8 % of control treated with solvent alone |  |  | −6 % of solvent treated control | −9 % of solvent treated control |
